Source: PubChem BioAssay (NCI)
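Briefly, cells in 96-well plates were exposed to five compound concentrations for 48 h, and endpoints were estimated by linear interpolation. At the GI50, growth is halved. Definition used: TGI = concentration required for complete inhibition of growth.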

Columns and labels:
Test in all cases: NCI tumour cell line growth inhibition, 48 h
SNB-19 CNS = tested on: SNB-19 CNS
PC-3 prostate = tested on: PC-3 prostate
TK-10 renal = tested on: TK-10 renal
KM12 colon = tested on: KM12 colon
NCI-H226 lung = tested on: NCI-H226 lung
CAKI-1 renal = tested on: CAKI-1 renal
SK-MEL-2 melanoma = tested on: SK-MEL-2 melanoma
BT-549 breast = tested on: BT-549 breast
A549 NSCLC = tested on: A549 NSCLC
MALME-3M melanoma = tested on: MALME-3M melanoma
SK-MEL-5 melanoma = tested on: SK-MEL-5 melanoma
OVCAR-4 ovarian = tested on: OVCAR-4 ovarian
SN12C renal = tested on: SN12C renal
OVCAR-8 ovarian = tested on: OVCAR-8 ovarian
M14 melanoma = tested on: M14 melanoma
RPMI-8226 leukemia = tested on: RPMI-8226 leukemia
DU-145 prostate = tested on: DU-145 prostate
SF-295 CNS = tested on: SF-295 CNS
SF-539 CNS = tested on: SF-539 CNS
ACHN renal = tested on: ACHN renal
HCC-2998 colon = tested on: HCC-2998 colon
SK-OV-3 ovarian = tested on: SK-OV-3 ovarian
SF-268 CNS = tested on: SF-268 CNS
SNB-75 CNS = tested on: SNB-75 CNS
K-562 leukemia = tested on: K-562 leukemia
A498 renal = tested on: A498 renal
MOLT-4 leukemia = tested on: MOLT-4 leukemia
IGROV1 ovarian = tested on: IGROV1 ovarian
UACC-257 melanoma = tested on: UACC-257 melanoma
COLO 205 colon = tested on: COLO 205 colon
NCI-H460 lung = tested on: NCI-H460 lung
HCT-116 colon = tested on: HCT-116 colon
NCI/ADR-RES ovarian = tested on: NCI/ADR-RES ovarian
U251 CNS = tested on: U251 CNS
HOP-62 NSCLC = tested on: HOP-62 NSCLC
EKVX NSCLC = tested on: EKVX NSCLC
HCT-15 colon = tested on: HCT-15 colon
HOP-92 NSCLC = tested on: HOP-92 NSCLC
HL-60(TB) leukemia = tested on: HL-60(TB) leukemia
SR leukemia = tested on: SR leukemia
SK-MEL-28 melanoma = tested on: SK-MEL-28 melanoma
NCI-H522 lung = tested on: NCI-H522 lung
MCF7 breast = tested on: MCF7 breast
MDA-MB-435 = tested on: MDA-MB-435
T-47D breast = tested on: T-47D breast
CCRF-CEM leukemia = tested on: CCRF-CEM leukemia
RXF 393 renal = tested on: RXF 393 renal
UO-31 renal = tested on: UO-31 renal
NCI-H23 lung = tested on: NCI-H23 lung
OVCAR-3 ovarian = tested on: OVCAR-3 ovarian
UACC-62 melanoma = tested on: UACC-62 melanoma
HT29 colon = tested on: HT29 colon
OVCAR-5 ovarian = tested on: OVCAR-5 ovarian
786-0 renal = tested on: 786-0 renal
MDA-MB-468 breast = tested on: MDA-MB-468 breast

SMILES: COc1ccc(-c2ccnc(SCc3cc4ccccc4[nH]c3=O)n2)cc1OC
- GI50 (SNB-19 CNS): 16.9 µM
- TGI (SNB-19 CNS): 54 µM
- GI50 (PC-3 prostate): 16.5 µM
- TGI (PC-3 prostate): 50.8 µM
- GI50 (TK-10 renal): 17.5 µM
- TGI (TK-10 renal): 58.9 µM
- GI50 (KM12 colon): 30.8 µM
- TGI (KM12 colon): > 100 µM
- GI50 (NCI-H226 lung): 13 µM
- TGI (NCI-H226 lung): 37.2 µM
- GI50 (CAKI-1 renal): 8.22 µM
- TGI (CAKI-1 renal): 25.4 µM
- GI50 (SK-MEL-2 melanoma): 16.9 µM
- TGI (SK-MEL-2 melanoma): 50.4 µM
- GI50 (BT-549 breast): 7.58 µM
- TGI (BT-549 breast): 34.8 µM
- GI50 (A549 NSCLC): 23.6 µM
- TGI (A549 NSCLC): > 100 µM
- GI50 (MALME-3M melanoma): 23.1 µM
- TGI (MALME-3M melanoma): 54.4 µM
- GI50 (SK-MEL-5 melanoma): 13 µM
- TGI (SK-MEL-5 melanoma): 42.8 µM
- GI50 (OVCAR-4 ovarian): 19.1 µM
- TGI (OVCAR-4 ovarian): 84.6 µM
- GI50 (SN12C renal): 12.4 µM
- TGI (SN12C renal): 34.9 µM
- GI50 (OVCAR-8 ovarian): 23.2 µM
- TGI (OVCAR-8 ovarian): > 100 µM
- GI50 (M14 melanoma): 40.3 µM
- TGI (M14 melanoma): > 100 µM
- GI50 (RPMI-8226 leukemia): 16.3 µM
- TGI (RPMI-8226 leukemia): > 100 µM
- GI50 (DU-145 prostate): 18.1 µM
- TGI (DU-145 prostate): 71.9 µM
- GI50 (SF-295 CNS): 13.7 µM
- TGI (SF-295 CNS): 34 µM
- GI50 (SF-539 CNS): 12.4 µM
- TGI (SF-539 CNS): 27.4 µM
- GI50 (ACHN renal): 13.5 µM
- TGI (ACHN renal): 27.8 µM
- GI50 (HCC-2998 colon): 21.4 µM
- TGI (HCC-2998 colon): 58.8 µM
- GI50 (SK-OV-3 ovarian): 19.9 µM
- TGI (SK-OV-3 ovarian): 41.7 µM
- GI50 (SF-268 CNS): 20.8 µM
- TGI (SF-268 CNS): > 100 µM
- GI50 (SNB-75 CNS): 4.36 µM
- TGI (SNB-75 CNS): 23.6 µM
- GI50 (K-562 leukemia): 5.48 µM
- TGI (K-562 leukemia): > 100 µM
- GI50 (A498 renal): 17.8 µM
- TGI (A498 renal): 50.9 µM
- GI50 (MOLT-4 leukemia): 7.17 µM
- TGI (MOLT-4 leukemia): > 100 µM
- GI50 (IGROV1 ovarian): 16.8 µM
- TGI (IGROV1 ovarian): 39.8 µM
- GI50 (UACC-257 melanoma): 30.6 µM
- TGI (UACC-257 melanoma): 89.9 µM
- GI50 (COLO 205 colon): 33.9 µM
- TGI (COLO 205 colon): > 100 µM
- GI50 (NCI-H460 lung): 26.8 µM
- TGI (NCI-H460 lung): > 100 µM
- GI50 (HCT-116 colon): 21.2 µM
- TGI (HCT-116 colon): > 100 µM
- GI50 (NCI/ADR-RES ovarian): 14.3 µM
- TGI (NCI/ADR-RES ovarian): 49.8 µM
- GI50 (U251 CNS): 19.9 µM
- TGI (U251 CNS): > 100 µM
- GI50 (HOP-62 NSCLC): 16.4 µM
- TGI (HOP-62 NSCLC): 45.8 µM
- GI50 (EKVX NSCLC): 14.6 µM
- TGI (EKVX NSCLC): 53.5 µM
- GI50 (HCT-15 colon): 20 µM
- TGI (HCT-15 colon): > 100 µM
- GI50 (HOP-92 NSCLC): 1.84 µM
- TGI (HOP-92 NSCLC): 14.9 µM
- GI50 (HL-60(TB) leukemia): 99.6 µM
- TGI (HL-60(TB) leukemia): > 100 µM
- GI50 (SR leukemia): 18.3 µM
- TGI (SR leukemia): > 100 µM
- GI50 (SK-MEL-28 melanoma): 17.3 µM
- TGI (SK-MEL-28 melanoma): 38.5 µM
- GI50 (NCI-H522 lung): 18.3 µM
- TGI (NCI-H522 lung): 61.1 µM
- GI50 (MCF7 breast): 26.9 µM
- TGI (MCF7 breast): > 100 µM
- GI50 (MDA-MB-435): 30.6 µM
- TGI (MDA-MB-435): > 100 µM
- GI50 (T-47D breast): 11 µM
- TGI (T-47D breast): 38.9 µM
- GI50 (CCRF-CEM leukemia): 34.3 µM
- TGI (CCRF-CEM leukemia): > 100 µM
- GI50 (RXF 393 renal): 5.45 µM
- TGI (RXF 393 renal): 27.6 µM
- GI50 (UO-31 renal): 11.1 µM
- TGI (UO-31 renal): 26.6 µM
- GI50 (NCI-H23 lung): 17.4 µM
- TGI (NCI-H23 lung): 42.6 µM
- GI50 (OVCAR-3 ovarian): 19.5 µM
- TGI (OVCAR-3 ovarian): 56.4 µM
- GI50 (UACC-62 melanoma): 14.5 µM
- TGI (UACC-62 melanoma): 41 µM
- GI50 (HT29 colon): 18.8 µM
- TGI (HT29 colon): 40.6 µM
- GI50 (OVCAR-5 ovarian): 12.7 µM
- TGI (OVCAR-5 ovarian): 30.8 µM
- GI50 (786-0 renal): 14.5 µM
- TGI (786-0 renal): 37.9 µM
- GI50 (MDA-MB-468 breast): 4.27 µM
- TGI (MDA-MB-468 breast): 34 µM
